# Laboratory results as given in US8927500B2, “Peptidomimetic macrocycles” (Aileron Therapeutics, Inc., priority 2012, dated 2015).
# Where two headings read alike, the source gives them in different places. Where a SMILES comes first, the peptide text is derived from it. Bridges are numbered along the chain shown (N, C = ends). [ ]: non-standard residue; d: D form. dPhe(4-CF3) = N[C@H](Cc1ccc(C(F)(F)F)cc1)C(=O)O; R8 = C=CCCCCCC[C@@](C)(N)C(=O)O; S8 = C=CCCCCCC[C@](C)(N)C(=O)O; Cba = N[C@@H](CC1CCC1)C(=O)O; R5 = C=CCCC[C@@](C)(N)C(=O)O; S5 = C=CCCC[C@](C)(N)C(=O)O; Nle = CCCC[C@H](N)C(=O)O; Aib = CC(C)(N)C(=O)O
# Columns and labels:
# [1] = biological target: MDM2 (Homo sapiens, UniProt Q00987); assay: Competitive fluorescence polarization assay for MDM2; type: binding; conditions: for Ki: read-out: Ki (MDM2)
# [2] = biological target: T1, MDMX (Homo sapiens, UniProt O15151); assay: Competitive fluorescence polarization assay for MDMX; type: binding; conditions: competitive FP assay; for IC50: read-out: IC50 (MDMX); for Ki: read-out: Ki (MDMX)
# T1 sequence (O15151 1-125): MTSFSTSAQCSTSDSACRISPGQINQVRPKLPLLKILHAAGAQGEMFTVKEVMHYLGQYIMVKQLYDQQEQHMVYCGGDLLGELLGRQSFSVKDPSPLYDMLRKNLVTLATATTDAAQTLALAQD
# [3] = tested on: Caspase 3; assay: Caspase 3 detection assay in SJSA1 cells; type: cell-based; conditions: 48 h, Caspase 3 activation over DMSO-treated cells; for caspase 3 uM: 3 uM peptide; for caspase 10 uM: 10 uM peptide; for caspase 30 uM: 30 uM peptide; for caspase 0.3 uM: 0.3 uM peptide
# [4] = tested on: SJSA-1 cells; assay: Cell lysis by peptidomimetic macrocycles (LDH release); type: cell-based; conditions: 1 h at 37C
# [5] = competitive FP assay, MDM2, read-out: IC50 (MDM2)
# MDM2, sequence (Q00987 1-125): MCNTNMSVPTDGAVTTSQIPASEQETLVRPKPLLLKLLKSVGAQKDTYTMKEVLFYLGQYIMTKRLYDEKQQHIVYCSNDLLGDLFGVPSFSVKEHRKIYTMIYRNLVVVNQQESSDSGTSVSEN
"IC50 [1, 5] [nM]","Ki ([1]; competitive FP assay, MDM2) [nM]",IC50 [2] [nM],Ki [2] [nM],SMILES,caspase 3 uM [3],caspase 10 uM [3],caspase 30 uM [3],6.25 uM % Lysed cells (1 h LDH) [4] [%],25 uM % Lysed cells (1 h LDH) [4] [%],50 uM % Lysed cells (1 h LDH) [4] [%],caspase 0.3 uM [3],caspase 1 uM ([3]; 1 uM peptide),IC50 ([1]; IC50 (MDM2)) [nM]
100 to 1000,< 10,100 to 1000,10 to 100,"CC[C@H](C)[C@H](NC(=O)[C@H](C)NC(=O)[C@H](C)NC(=O)[C@]1(C)CCCC=CCCCCCC[C@@](C)(NC(=O)[C@H](Cc2ccccc2)NC(=O)[C@@H](NC(=O)[C@H](CC(C)C)NC(C)=O)[C@@H](C)O)C(=O)N[C@@H](C)C(=O)N[C@@H](Cc2ccc(O)cc2)C(=O)N[C@@H](Cc2c[nH]c3ccccc23)C(=O)N[C@@H](C)C(=O)N[C@@H](CCC(N)=O)C(=O)N[C@@H](CC(C)C)C(=O)N1)C(=O)N[C@H](C)C(N)=O (single isomer, unassigned) [compound 70]",1,9,26,,,,,,
< 10,< 10,100 to 1000,10 to 100,CC(=O)N[C@@H](CCC(=O)O)C(=O)N[C@H](C(=O)N[C@@H](Cc1ccccc1)C(=O)N[C@]1(C)CCCCCCC=CCCC[C@@](C)(C(=O)N[C@@H](CO)C(=O)N[C@@H](CC(C)C)C(=O)N[C@@H](C)C(N)=O)NC(=O)[C@H](CC(C)C)NC(=O)[C@H](CCC(N)=O)NC(=O)[C@H](C)NC(=O)[C@H](Cc2c[nH]c3ccccc23)NC(=O)[C@H](Cc2ccc(O)cc2)NC(=O)[C@H](C(C)C)NC1=O)[C@@H](C)O [compound 127] (Ac-ETF[R8]VYWAQL[S5]SLA-NH2; staple 4-11),1,4,13,,,,1,,
10 to 100,< 10,10 to 100,10 to 100,CCCC[C@H](NC(=O)[C@H](C)NC(=O)[C@H](C)NC(=O)[C@]1(C)CCCC=CCCCCCC[C@@](C)(NC(=O)[C@H](Cc2ccccc2)NC(=O)[C@@H](NC(=O)[C@H](CC(C)C)NC(C)=O)[C@@H](C)O)C(=O)N[C@@H](CCC(=O)O)C(=O)N[C@@H](Cc2ccc(O)cc2)C(=O)N[C@@H](Cc2c[nH]c3ccccc23)C(=O)N[C@@H](C)C(=O)N[C@@H](CCC(N)=O)C(=O)N[C@@H](CC2CCC2)C(=O)N1)C(=O)N[C@@H](C)C(N)=O [compound 238] (Ac-LTF[R8]EYWAQ[Cba][S5]AA[Nle]A-NH2; staple 4-11),2,4,21,,,,1,,
10 to 100,< 10,100 to 1000,10 to 100,CC(=O)N[C@@H](CC(C)C)C(=O)N[C@H](C(=O)N[C@@H](Cc1ccccc1)C(=O)N[C@]1(C)CCCCCCC=CCCC[C@@](C)(C(=O)N[C@@H](CO)C(=O)N[C@@H](C)C(=O)N[C@@H](Cc2ccccc2)C(=O)N[C@@H](C)C(N)=O)NC(=O)[C@H](CC2CCC2)NC(=O)[C@H](CCC(N)=O)NC(=O)[C@H](C)NC(=O)[C@H](Cc2c[nH]c3ccccc23)NC(=O)[C@H](Cc2ccc(O)cc2)NC(=O)[C@H](CCC(=O)O)NC1=O)[C@@H](C)O [compound 242] (Ac-LTF[R8]EYWAQ[Cba][S5]SAFA-NH2; staple 4-11),4,5,18,,,,1,,
10 to 100,,> 1000,,CC(=O)N[C@@H](C(=O)N[C@@]1(C)CCCCCCC=CCCC[C@](C)(C(=O)N[C@H](CC(C)C)C(=O)N[C@H](CC(C)C)C(=O)N[C@H](CCCNC(=N)N)C(N)=O)NC(=O)[C@@H](CCC(=O)O)NC(=O)[C@@H](Cc2ccc(C(F)(F)F)cc2)NC(=O)[C@@H](CC(N)=O)NC(=O)[C@@H](C)NC(=O)[C@@H](Cc2ccc(O)cc2)NC(=O)[C@@H](Cc2c[nH]c3ccccc23)NC1=O)[C@H](C)O [compound 756] (Ac-[dT][S8][dW][dY][dA][dN][dPhe(4-CF3)][dE][R5][dL][dL][dR]-NH2; staple 2-9),,,,,,,,,
10 to 100,,> 1000,,CC(=O)N[C@@H](C(=O)N[C@H](C)C(=O)N[C@H](Cc1c[nH]c2ccccc12)C(=O)N[C@H](Cc1ccc(O)cc1)C(=O)N[C@H](C)C(=O)N[C@@]1(C)CCCCCCC=CCCC[C@](C)(C(=O)N[C@H](C)C(N)=O)NC(=O)[C@@H](CCCNC(=N)N)NC(=O)[C@@H](CC(C)C)NC(=O)[C@@H](CC(C)C)NC(=O)[C@@H](CCCCN)NC(=O)[C@@H](CCC(=O)O)NC(=O)[C@@H](Cc2ccc(C(F)(F)F)cc2)NC1=O)[C@H](C)O [compound 758] (Ac-[dT][dA][dW][dY][dA][S8][dPhe(4-CF3)][dE][dK][dL][dL][dR][R5][dA]-NH2; staple 6-13),,,,,,,,,

# Second part, the compound before the results:
SMILES,"IC50 [1, 5] [nM]","Ki ([1]; competitive FP assay, MDM2) [nM]",IC50 [2] [nM],Ki [2] [nM],caspase 3 uM [3],caspase 10 uM [3],caspase 30 uM [3],6.25 uM % Lysed cells (1 h LDH) [4] [%],25 uM % Lysed cells (1 h LDH) [4] [%],50 uM % Lysed cells (1 h LDH) [4] [%],caspase 0.3 uM [3],caspase 1 uM ([3]; 1 uM peptide),IC50 ([1]; IC50 (MDM2)) [nM]
"CC[C@H](C)[C@H](NC(=O)[C@H](C)NC(=O)[C@H](C)NC(=O)[C@]1(C)CCCC=CCCCCCC[C@@](C)(NC(=O)[C@H](Cc2ccccc2)NC(=O)[C@@H](NC(=O)[C@H](CC(C)C)NC(C)=O)[C@@H](C)O)C(=O)N[C@@H](C)C(=O)N[C@@H](Cc2ccc(O)cc2)C(=O)N[C@@H](Cc2c[nH]c3ccccc23)C(=O)N[C@@H](C)C(=O)N[C@@H](CCC(N)=O)C(=O)N[C@@H](CC(C)C)C(=O)N1)C(=O)N[C@H](CC(C)C)C(N)=O (single isomer, unassigned) [compound 82]",,,,,,,,0,0,1,,,
"CC(=O)N[C@@H](CC(C)C)C(=O)N[C@H](C(=O)N[C@@H](Cc1ccccc1)C(=O)N[C@]1(C)CCCCCCC=CCCC[C@@](C)(C(=O)N[C@@H](C)C(=O)N[C@H](C(=O)NCC(N)=O)C(C)C)NC(=O)[C@H](CC(C)C)NC(=O)[C@H](CCC(N)=O)NC(=O)[C@H](C)NC(=O)[C@H](Cc2c[nH]c3ccccc23)NC(=O)[C@H](Cc2ccc(O)cc2)NC(=O)[C@H](C)NC1=O)[C@@H](C)O (single isomer, unassigned) [compound 108]",,,,,,,,0,0,1,,,
"CC(=O)N[C@@H](CC(C)C)C(=O)N[C@H](C(=O)N[C@@H](Cc1ccccc1)C(=O)N[C@]1(C)CCCCCCC=CCCC[C@@](C)(C(=O)N[C@@H](C)C(=O)N[C@H](C(=O)NCC(N)=O)C(C)C)NC(=O)[C@H](CC(C)C)NC(=O)[C@H](CCC(N)=O)NC(=O)[C@H](C)NC(=O)[C@H](Cc2c[nH]c3ccccc23)NC(=O)[C@H](Cc2ccc(O)cc2)NC(=O)[C@H](C)NC1=O)[C@@H](C)O (single isomer, unassigned) [compound 109]",,,,,4,16,25,,,,,,
"CC(=O)N[C@@H](C)C(=O)N[C@@H](C)C(=O)N[C@@H](CC(C)C)C(=O)N[C@H](C(=O)N[C@@H](Cc1ccccc1)C(=O)N[C@]1(C)CCCCCCC=CCCC[C@@](C)(C(=O)N[C@@H](CO)C(=O)N[C@@H](C)C(=O)N[C@@H](C)C(=O)N[C@@H](C)C(=O)N[C@H](C)C(N)=O)NC(=O)[C@H](CC2CCC2)NC(=O)[C@H](CCC(N)=O)NC(=O)[C@H](C)NC(=O)[C@H](Cc2c[nH]c3ccccc23)NC(=O)[C@H](Cc2ccc(O)cc2)NC(=O)[C@H](CCC(=O)O)NC1=O)[C@@H](C)O (single isomer, unassigned) [compound 358]",,,,,3,6,24,,,,1,2,
CC(=O)N[C@@H](CC(C)C)C(=O)N[C@H](C(=O)N[C@@H](Cc1ccccc1)C(=O)N[C@]1(C)CCCCCCC=CCCC[C@@](C)(C(=O)N[C@@H](CO)C(=O)N[C@@H](C)C(=O)NC(C)(C)C(N)=O)NC(=O)[C@H](CC(C)C)NC(=O)[C@H](CCC(N)=O)NC(=O)[C@H](C)NC(=O)[C@H](Cc2c[nH]c3ccccc23)NC(=O)[C@H](Cc2ccc(O)cc2)NC(=O)[C@H](C)NC1=O)[C@@H](C)O [compound 10] (Ac-LTF[R8]AYWAQL[S5]SA[Aib]-NH2; staple 4-11),100 to 1000,10 to 100,100 to 1000,10 to 100,1,17,32,,,,1,,
CC(=O)N[C@@H](CC(C)C)C(=O)N[C@H](C(=O)N[C@@H](Cc1ccccc1)C(=O)N[C@]1(C)CCCCCCC=CCCC[C@@](C)(C(=O)N[C@@H](C)C(=O)N[C@@H](Cc2c[nH]cn2)C(=O)N[C@@H](Cc2ccccc2)C(=O)N[C@@H](C)C(N)=O)NC(=O)[C@H](CC(C)C)NC(=O)[C@H](CCC(N)=O)NC(=O)[C@H](C)NC(=O)[C@H](Cc2c[nH]c3ccccc23)NC(=O)[C@H](Cc2ccc(O)cc2)NC(=O)[C@H](C)NC1=O)[C@@H](C)O [compound 50] (Ac-LTF[R8]AYWAQL[S5]AHFA-NH2; staple 4-11),10 to 100,< 10,100 to 1000,10 to 100,8,29,29,,,,,,
CC(=O)N[C@@H](C(=O)N[C@H](C)C(=O)N[C@H](Cc1c[nH]c2ccccc12)C(=O)N[C@H](Cc1ccc(O)cc1)C(=O)N[C@@]1(C)CCCCCCC=CCCC[C@](C)(C(=O)N[C@H](C)C(N)=O)NC(=O)[C@@H](CC(C)C)NC(=O)[C@@H](CC(C)C)NC(=O)[C@@H](CCCCN)NC(=O)[C@@H](CCC(=O)O)NC(=O)[C@@H](Cc2ccc(C(F)(F)F)cc2)NC(=O)[C@@H](CC(N)=O)NC1=O)[C@H](C)O [compound 757] (Ac-[dT][dA][dW][dY][S8][dN][dPhe(4-CF3)][dE][dK][dL][dL][R5][dA]-NH2; staple 5-12),,,> 1000,,,,,,,,,,< 10
